Measured values reported in ChEMBL document CHEMBL1201862, “PubChem BioAssay data set” (2004).
Active and inactive are the calls of the source.

How the values were obtained:
[1] = molecular target: T1, Type-1 angiotensin II receptor (Homo sapiens, UniProt P30556); assay: AT1 receptor agonists, dose response, selectivity assay for APJ receptor agonist project, cell-based, uHTS hits (AID 488865); format: functional;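 further: beta-arrestin recruitment to AT1 measured by enzyme fragment complementation luminescence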
T1 sequence (P30556 whole entry): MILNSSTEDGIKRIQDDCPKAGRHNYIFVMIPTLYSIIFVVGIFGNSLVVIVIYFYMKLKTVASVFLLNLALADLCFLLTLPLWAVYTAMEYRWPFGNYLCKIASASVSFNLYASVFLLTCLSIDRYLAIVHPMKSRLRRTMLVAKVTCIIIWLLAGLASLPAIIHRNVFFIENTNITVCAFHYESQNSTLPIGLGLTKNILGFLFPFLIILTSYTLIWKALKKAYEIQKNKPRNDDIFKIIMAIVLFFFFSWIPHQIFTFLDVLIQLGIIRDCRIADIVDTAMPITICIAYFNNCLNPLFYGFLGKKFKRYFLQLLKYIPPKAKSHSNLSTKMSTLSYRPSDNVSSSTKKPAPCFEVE

[2] = cytotoxicity in HEK-293T cells, dose response, cytotoxicity control for TCR NF-kB inhibitor project, luminescence, T-cell screen hits (AID 489026); format: functional, cell-based;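 further: cells exposed to compound about 14 hours before the viability readout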
[3] = molecular target: FAD-linked sulfhydryl oxidase ALR (Homo sapiens, UniProt P55789); assay: inhibitors of human ALR sulfhydryl oxidase, dose response, biochemical, H2O2 detection, luminescence, cherry-pick (AID 493248)
Sequence of FAD-linked sulfhydryl oxidase ALR (P55789 whole entry): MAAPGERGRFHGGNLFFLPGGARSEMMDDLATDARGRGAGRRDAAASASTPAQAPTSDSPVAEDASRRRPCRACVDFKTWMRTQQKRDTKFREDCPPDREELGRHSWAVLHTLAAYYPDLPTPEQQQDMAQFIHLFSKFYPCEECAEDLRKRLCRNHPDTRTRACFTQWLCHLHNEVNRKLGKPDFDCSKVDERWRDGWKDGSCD

[4] = microbe, parasite or virus in culture; format: functional; conditions: Mycobacterium tuberculosis
[5] = cytotoxicity toward DRD oncogenic fibroblasts, dose response, cell-based, non-viral oncogenic, luminescence (AID 1934); format: functional; conditions: Homo sapiens
[6] = molecular target: DNA dC->dU-editing enzyme APOBEC-3G (Homo sapiens, UniProt Q9HC16); format: functional;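 further: Dose-response counterscreen measuring inhibition of APOBEC3G DNA deaminase activity, run while confirming APOBEC3A inhibitors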
Sequence of DNA dC->dU-editing enzyme APOBEC-3G (Q9HC16 whole entry): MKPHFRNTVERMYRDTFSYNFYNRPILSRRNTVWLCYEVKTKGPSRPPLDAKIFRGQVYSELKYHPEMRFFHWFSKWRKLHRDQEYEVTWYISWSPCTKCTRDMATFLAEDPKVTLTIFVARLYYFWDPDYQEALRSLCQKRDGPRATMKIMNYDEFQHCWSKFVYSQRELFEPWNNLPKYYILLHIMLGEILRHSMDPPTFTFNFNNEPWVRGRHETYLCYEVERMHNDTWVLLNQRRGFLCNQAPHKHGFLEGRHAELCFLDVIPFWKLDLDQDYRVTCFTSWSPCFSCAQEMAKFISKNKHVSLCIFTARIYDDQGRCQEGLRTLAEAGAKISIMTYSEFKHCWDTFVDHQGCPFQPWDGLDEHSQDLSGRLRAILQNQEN

BJ [7] = assay: cells; format: functional, cell-based; conditions: Homo sapiens
BJ [8] = assay: cytotoxicity toward BJ-TERT-LT-ST fibroblasts, dose response, cell-based, RAS-independent, luminescence (AID 1935); format: functional; conditions: Homo sapiens;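 further: BJ fibroblasts immortalized with TERT plus LT and ST oncogenes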
BJ [9] = assay: cytotoxicity toward BJ-TERT fibroblasts, dose response, cell-based, RAS-independent, luminescence (AID 1933); format: functional; conditions: Homo sapiens
[10] = molecular target: DNA dC->dU-editing enzyme APOBEC-3A (Homo sapiens, UniProt P31941); assay: Dose Response confirmation of small molecule APOBEC3A DNA Deaminase Inhibitors via a fluorescence-based single-stranded DNA deaminase assay. [Related pubchem assays (depositor defined):AID493011, AID493024]; format: functional
Sequence of DNA dC->dU-editing enzyme APOBEC-3A (P31941 whole entry): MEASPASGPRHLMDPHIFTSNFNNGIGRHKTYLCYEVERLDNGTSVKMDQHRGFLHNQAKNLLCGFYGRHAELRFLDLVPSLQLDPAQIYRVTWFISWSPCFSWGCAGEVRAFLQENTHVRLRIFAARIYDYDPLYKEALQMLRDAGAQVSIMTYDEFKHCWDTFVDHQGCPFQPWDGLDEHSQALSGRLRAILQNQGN

Coagulation factor XII = molecular target: T2, Coagulation factor XII (Homo sapiens, UniProt P00748); assay: FXIIa inhibitor potency, concentration-response, biochemical (AID 716); format: functional
T2 sequence (P00748 whole entry): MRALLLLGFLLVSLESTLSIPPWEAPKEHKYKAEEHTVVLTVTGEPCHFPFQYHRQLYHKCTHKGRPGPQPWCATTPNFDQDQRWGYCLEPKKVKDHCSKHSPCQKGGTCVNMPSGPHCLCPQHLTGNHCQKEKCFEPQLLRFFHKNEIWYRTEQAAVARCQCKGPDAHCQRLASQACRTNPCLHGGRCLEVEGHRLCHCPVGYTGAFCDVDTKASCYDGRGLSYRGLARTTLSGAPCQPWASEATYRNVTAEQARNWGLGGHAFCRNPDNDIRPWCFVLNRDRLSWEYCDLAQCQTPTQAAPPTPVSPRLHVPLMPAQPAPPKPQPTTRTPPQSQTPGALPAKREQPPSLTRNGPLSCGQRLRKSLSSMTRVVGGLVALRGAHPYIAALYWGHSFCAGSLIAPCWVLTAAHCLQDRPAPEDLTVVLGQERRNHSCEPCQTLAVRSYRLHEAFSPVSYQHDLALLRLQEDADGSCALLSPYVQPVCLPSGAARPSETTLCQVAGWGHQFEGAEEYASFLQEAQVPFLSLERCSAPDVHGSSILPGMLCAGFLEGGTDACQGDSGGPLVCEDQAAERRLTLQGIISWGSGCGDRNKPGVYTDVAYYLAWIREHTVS

Protein skinhead-1 = molecular target: T3, Protein skinhead-1 (Caenorhabditis elegans, UniProt P34707); format: functional
T3 sequence (P34707 whole entry): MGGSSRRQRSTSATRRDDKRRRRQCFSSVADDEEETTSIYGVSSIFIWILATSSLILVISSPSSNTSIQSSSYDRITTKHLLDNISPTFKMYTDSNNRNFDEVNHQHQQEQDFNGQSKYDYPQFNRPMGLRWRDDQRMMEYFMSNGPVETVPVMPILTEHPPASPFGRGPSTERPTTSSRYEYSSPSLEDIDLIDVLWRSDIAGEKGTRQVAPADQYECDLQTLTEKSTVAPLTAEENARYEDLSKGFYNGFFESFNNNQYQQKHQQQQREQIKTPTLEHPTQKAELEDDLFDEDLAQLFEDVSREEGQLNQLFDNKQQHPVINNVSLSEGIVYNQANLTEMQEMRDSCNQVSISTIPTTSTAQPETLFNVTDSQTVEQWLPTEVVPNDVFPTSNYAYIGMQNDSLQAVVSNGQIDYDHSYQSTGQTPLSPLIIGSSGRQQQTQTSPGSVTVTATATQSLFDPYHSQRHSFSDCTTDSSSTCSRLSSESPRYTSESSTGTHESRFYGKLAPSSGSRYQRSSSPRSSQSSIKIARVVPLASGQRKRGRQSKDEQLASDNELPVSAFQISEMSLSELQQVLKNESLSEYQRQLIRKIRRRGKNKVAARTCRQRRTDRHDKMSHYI

Streptokinase A = molecular target: T4, Streptokinase A (Streptococcus pyogenes serotype M1, UniProt P10520); assay: S. pyogenes streptokinase expression inhibitors, potency, dose response, plasminogen activation absorbance, OD405 (AID 1914); format: functional, Streptococcus pyogenes M1 GAS;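 further: secreted streptokinase activity via plasminogen activation per viability signal from cell pellet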
T4 sequence (P10520 whole entry): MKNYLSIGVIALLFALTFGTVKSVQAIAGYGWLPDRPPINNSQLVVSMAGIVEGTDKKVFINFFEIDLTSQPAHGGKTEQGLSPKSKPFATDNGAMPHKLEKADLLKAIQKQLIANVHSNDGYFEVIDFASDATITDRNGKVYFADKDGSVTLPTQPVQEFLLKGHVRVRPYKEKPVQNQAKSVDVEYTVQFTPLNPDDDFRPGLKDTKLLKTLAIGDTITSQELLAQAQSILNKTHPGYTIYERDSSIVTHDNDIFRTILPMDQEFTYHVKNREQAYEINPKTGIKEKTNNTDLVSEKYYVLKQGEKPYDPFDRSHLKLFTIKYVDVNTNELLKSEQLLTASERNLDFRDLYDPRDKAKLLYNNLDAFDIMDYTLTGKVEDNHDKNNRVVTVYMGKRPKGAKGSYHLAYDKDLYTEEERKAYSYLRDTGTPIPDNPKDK

Streptococcus = assay: Group A Streptococcus viability loss, dose response, counter-screen for streptokinase expression inhibitor project, luminescence, BacTiterGlo (AID 1915); format: functional, organism-based;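 further: potency for reduction of bacterial viability or growth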
[11] = tested on: Streptococcus sp. 'group A'; assay: growth inhibition of control SK(-) GAS strain, dose response, counter-screen for streptokinase expression inhibitor project, luminescence, kanamycin, BacTiterGlo, confirmation (AID 1900); format: functional, organism-based
[12] = molecular target: T5, Short transient receptor potential channel 4 (Mus musculus, UniProt Q9QUQ5); assay: mouse TRPC4 channel activators, dose response, cell-based, HEK293 TRPC4/mu-opioid, Fluo-4 calcium (AID 434937); format: functional
T5 sequence (Q9QUQ5 whole entry): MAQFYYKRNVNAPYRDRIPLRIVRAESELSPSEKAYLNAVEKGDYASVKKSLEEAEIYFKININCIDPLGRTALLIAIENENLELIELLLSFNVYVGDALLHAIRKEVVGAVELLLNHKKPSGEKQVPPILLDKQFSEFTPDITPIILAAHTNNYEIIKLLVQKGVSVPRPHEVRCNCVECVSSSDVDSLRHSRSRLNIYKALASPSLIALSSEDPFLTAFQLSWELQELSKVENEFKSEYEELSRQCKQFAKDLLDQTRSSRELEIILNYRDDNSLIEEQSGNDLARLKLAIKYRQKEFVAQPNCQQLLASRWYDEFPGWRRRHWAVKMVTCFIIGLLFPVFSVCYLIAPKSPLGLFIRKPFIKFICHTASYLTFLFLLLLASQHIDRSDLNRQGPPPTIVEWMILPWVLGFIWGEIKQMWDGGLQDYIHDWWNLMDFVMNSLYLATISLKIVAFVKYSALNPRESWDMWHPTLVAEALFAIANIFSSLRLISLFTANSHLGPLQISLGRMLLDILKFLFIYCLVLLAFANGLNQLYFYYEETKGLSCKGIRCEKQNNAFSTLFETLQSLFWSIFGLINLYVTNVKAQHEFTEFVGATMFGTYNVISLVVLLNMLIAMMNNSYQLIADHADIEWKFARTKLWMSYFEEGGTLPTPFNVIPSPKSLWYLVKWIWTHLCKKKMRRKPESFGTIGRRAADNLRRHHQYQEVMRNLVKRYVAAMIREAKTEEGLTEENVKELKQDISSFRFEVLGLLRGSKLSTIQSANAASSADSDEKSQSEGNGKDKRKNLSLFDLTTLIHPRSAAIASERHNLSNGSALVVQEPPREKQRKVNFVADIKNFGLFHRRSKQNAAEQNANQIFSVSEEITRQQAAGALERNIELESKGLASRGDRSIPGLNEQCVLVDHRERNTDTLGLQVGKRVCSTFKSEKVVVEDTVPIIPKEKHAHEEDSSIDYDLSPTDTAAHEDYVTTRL

[13] = molecular target: T5, Short transient receptor potential channel 4; assay: TRPC4 positive allosteric modulators, dose response, cell-based, HEK293 TRPC4/mu-opioid, Fluo-4 calcium, EC20 DAMGO (AID 434941); format: functional
Mu-type opioid receptor = Mu-type opioid receptor (Homo sapiens, UniProt P35372); assay: SAR Analysis of Antagonists of the MOR Receptor using an Image-Based Assay - Set 3. [Related pubchem assays (depositor defined):AID1777, AID1785, AID1786, AID1966, AID2133, AID2136, AID2284, AID2285, AID2420]; format: functional
Sequence of Mu-type opioid receptor (P35372 whole entry): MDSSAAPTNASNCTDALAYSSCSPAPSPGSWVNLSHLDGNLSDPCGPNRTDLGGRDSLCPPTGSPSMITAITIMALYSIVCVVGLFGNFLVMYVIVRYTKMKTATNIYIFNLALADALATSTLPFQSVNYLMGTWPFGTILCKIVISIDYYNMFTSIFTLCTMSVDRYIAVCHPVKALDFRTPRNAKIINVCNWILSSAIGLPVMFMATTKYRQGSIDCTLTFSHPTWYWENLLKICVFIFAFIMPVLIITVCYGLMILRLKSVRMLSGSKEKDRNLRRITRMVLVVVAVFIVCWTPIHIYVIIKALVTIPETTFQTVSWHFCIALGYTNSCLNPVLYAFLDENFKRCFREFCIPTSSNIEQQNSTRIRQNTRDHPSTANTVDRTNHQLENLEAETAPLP

[14] = molecular target: T6, Kappa-type opioid receptor (Homo sapiens, UniProt P41145); assay: SAR analysis of Antagonists of the Kappa Opioid Receptor (KOR) using an Image-Based Assay - Set 3. [Related pubchem assays (depositor defined):AID1777, AID1785]; format: functional
T6 sequence (P41145 whole entry): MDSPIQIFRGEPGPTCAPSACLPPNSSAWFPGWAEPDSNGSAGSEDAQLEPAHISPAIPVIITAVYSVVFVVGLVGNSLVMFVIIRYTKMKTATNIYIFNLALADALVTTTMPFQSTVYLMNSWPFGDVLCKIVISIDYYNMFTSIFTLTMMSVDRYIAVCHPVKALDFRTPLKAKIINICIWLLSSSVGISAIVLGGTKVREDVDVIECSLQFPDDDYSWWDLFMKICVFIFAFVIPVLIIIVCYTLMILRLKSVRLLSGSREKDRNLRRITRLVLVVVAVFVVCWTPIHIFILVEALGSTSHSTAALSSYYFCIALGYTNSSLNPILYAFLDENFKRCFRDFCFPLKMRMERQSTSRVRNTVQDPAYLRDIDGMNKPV

[15] = molecular target: Delta-type opioid receptor (Homo sapiens, UniProt P41143); assay: SAR Analysis of Antagonists of the DOR Receptor using an Image-Based Assay - Set 3. [Related pubchem assays (depositor defined):AID1777, AID1785]; format: functional;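 further: U2OS cells expressing DOR1 and beta-arrestin GFP stimulated with 100 nM SNC80; imaging of GFP-tagged beta-arrestin moving into spots after receptor activation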
Sequence of Delta-type opioid receptor (P41143 whole entry): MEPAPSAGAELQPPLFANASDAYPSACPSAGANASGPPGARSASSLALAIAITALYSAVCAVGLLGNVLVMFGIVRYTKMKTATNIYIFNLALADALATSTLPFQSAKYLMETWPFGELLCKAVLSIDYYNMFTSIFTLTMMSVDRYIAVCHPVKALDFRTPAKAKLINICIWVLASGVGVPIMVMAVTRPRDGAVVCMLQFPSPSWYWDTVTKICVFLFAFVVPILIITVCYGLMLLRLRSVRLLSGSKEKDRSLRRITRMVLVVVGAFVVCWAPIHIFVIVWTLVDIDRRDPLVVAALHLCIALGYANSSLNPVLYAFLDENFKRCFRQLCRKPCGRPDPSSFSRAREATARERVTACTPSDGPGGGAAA

[16] = molecular target: T6, Kappa-type opioid receptor; assay: SAR analysis of small molecule antagonists of the kappa opioid receptor via a luminescent beta-arrestin assay - Set 3. [Related pubchem assays (depositor defined):AID1777, AID1778, AID1785, AID1786, AID1966, AID2133, AID2136, AID2285, AID2495]; format: functional
[17] = molecular target: Dual specificity protein phosphatase 3 (Homo sapiens, UniProt P51452); assay: SAR VHR1 Fluorescent Assay for In Vitro dose response studies Set 2. [Related pubchem assays (depositor defined):AID1654, AID1661, AID1878]; format: functional
Sequence of Dual specificity protein phosphatase 3 (P51452 whole entry): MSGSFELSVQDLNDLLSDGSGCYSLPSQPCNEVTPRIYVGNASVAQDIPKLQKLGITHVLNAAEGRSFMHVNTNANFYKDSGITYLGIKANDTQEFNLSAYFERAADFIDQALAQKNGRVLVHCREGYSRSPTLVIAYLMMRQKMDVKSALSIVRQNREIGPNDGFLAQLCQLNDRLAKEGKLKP

[18] = molecular target: T7, Tyrosine-protein phosphatase non-receptor type 7 (Homo sapiens, UniProt P35236); assay: SAR analysis of chemical inhibitors of HePTP using a Fluorescent assay - Set 2. [Related pubchem assays (depositor defined):AID1059, AID1077, AID1661, AID2085, AID521]; format: functional
T7 sequence (P35236 whole entry): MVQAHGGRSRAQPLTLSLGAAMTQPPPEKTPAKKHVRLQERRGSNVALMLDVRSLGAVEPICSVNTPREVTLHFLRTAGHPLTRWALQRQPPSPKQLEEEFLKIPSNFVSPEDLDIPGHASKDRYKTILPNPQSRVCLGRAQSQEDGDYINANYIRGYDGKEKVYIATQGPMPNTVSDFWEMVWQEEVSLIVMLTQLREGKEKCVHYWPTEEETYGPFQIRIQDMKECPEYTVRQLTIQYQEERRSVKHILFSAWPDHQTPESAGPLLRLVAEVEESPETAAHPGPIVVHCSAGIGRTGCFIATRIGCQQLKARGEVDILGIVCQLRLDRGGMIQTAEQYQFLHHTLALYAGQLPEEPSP

T-cell = assay: inhibitors of CD8+ T cell–vesicle binding, dose response, mouse 2C CD8+ T cells, flow cytometry (AID 485284); format: functional

## CC1(OC(=O)C2CCCC2)C(=O)C=C2C=C(c3ccsc3)N(C3CCCC3)C=C2C1=O (stereo not given)
[1]
  EC50: > 100 µM (inactive)

## CC(C)CC[n+]1ccccc1C=Cc1ccc(N(C)C)cc1
[2]
  IC50: > 80 µM (inactive)
[3]
  AC50: 1.36 µM (active)
[4]
  CC50: > 40 µM (active)
[5]
  EC50: 22.8 µM (inconclusive)
[6]
  IC50: 19.3 µM (active)
BJ [7]
  EC50: 15.5 µM (active)
BJ [8]
  EC50: > 150 µM (inconclusive)
BJ [9]
  EC50: 3.6 µM (active)
[10]
  IC50: 6.84 µM (active)

## CCC(c1nnnn1Cc1ccc2c(c1)OCO2)N1CCN(c2ccc(F)cc2)CC1 (stereo not given)
Coagulation factor XII
  IC50: > 50 µM (inactive)
Protein skinhead-1
  IC50: > 100 µM (inactive)

## COc1cc(/C=C2/SC(=S)N(Cc3ccccc3)C2=O)cc(Cl)c1O
Protein skinhead-1
  IC50: > 100 µM (inactive)
Streptokinase A
  EC50: > 150 µM (not active)
Streptococcus
  EC50: 5.86 µM (active)
[11]
  EC50: 5.2 µM (active)
[12]
  EC50: 5.31 µM (active)
[13]
  EC50: 1.5 µM (active)

## Cc1ccc(S(=O)(=O)NCc2ccc(C(=O)NCCN(Cc3ccccc3)Cc3ccccc3)cc2)cc1
Mu-type opioid receptor
  IC50: > 32 µM (inactive)
[14]
  IC50: 7.47 µM (active)
[15]
  IC50: > 32 µM (inactive)
[16]
  IC50: 16.2 µM (inactive)

## C=CCn1c(N)c(C(=O)N2CCN(C)CC2)sc1=S
[17]
  IC50: 61.2 µM (active)
[18]
  IC50: 77.7 µM (active)

## O=C(Cn1cc(C(F)(F)F)cc(Cl)c1=O)NCCc1ccc(Cl)cc1Cl
T-cell
  EC50: 7.63 µM (active)
